Assay results published in US9546176B2, “Small molecule bicyclic and tricyclic CFTR correctors” (DISCOVERYBIOMED, INC., priority 2012, dated 2017).
pEC50: −log10 of the molar value.

molecular target: T1, delF508-CFTR (Homo sapiens, UniProt P13569, DEL508-508); assay: SPQ halide-sensitive fluorescence dye assay for rescue of halide efflux (8-point concentration-response); type: cell-based; details: CFBE41o- cells, 48 h
T1 construct: endogenous in cells; host or cells: CFBE41o- human CF bronchial epithelial cells (delF508 homozygous)
T1 sequence (P13569 with tags, fused parts or gaps DEL508-508): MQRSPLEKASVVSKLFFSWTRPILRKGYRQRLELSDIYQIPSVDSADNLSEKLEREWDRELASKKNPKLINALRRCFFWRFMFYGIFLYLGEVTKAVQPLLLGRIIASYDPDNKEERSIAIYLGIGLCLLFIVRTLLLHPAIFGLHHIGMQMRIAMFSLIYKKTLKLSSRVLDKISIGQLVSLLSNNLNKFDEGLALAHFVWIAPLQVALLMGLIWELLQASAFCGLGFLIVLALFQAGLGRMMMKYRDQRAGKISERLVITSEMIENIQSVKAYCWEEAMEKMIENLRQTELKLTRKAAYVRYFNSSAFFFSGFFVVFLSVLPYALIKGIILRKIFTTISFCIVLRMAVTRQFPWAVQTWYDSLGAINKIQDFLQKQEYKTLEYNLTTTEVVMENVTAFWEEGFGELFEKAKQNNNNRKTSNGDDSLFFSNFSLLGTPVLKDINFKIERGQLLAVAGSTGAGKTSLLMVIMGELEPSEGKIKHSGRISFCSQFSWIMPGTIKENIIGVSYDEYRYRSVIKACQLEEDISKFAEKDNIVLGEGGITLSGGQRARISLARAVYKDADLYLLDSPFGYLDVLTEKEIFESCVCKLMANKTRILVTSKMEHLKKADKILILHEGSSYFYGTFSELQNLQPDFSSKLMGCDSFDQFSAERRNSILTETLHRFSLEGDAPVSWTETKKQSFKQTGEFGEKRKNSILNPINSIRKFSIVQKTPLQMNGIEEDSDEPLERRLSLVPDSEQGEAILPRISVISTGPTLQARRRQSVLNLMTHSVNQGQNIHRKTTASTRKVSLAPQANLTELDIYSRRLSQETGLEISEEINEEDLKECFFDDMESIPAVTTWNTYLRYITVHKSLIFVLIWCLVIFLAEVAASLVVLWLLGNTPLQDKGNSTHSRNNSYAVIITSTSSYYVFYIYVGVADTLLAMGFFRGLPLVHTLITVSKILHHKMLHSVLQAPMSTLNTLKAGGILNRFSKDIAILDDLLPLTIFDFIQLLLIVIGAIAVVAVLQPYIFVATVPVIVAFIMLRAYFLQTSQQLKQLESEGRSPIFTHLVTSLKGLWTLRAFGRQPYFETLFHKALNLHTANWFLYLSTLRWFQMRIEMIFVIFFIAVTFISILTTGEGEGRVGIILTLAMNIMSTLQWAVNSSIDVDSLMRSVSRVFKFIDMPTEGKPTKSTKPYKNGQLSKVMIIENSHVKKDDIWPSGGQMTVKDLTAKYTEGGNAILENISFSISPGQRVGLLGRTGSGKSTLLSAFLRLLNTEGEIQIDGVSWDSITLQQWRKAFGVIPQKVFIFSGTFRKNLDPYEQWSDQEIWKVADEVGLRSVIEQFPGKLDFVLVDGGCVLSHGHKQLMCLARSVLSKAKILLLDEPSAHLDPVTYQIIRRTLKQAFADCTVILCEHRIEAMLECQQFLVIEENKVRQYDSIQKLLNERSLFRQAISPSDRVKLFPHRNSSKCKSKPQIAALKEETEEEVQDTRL
Description: The method of profiling can include detecting the rescue of halide efflux from a cell. The step of detecting a rescue of halide efflux from the cell can be monitored using the halide quenched dye 6-methoxy-N-(3-sulfopropyl)-quinolinium (SPQ, Molecular Probes Inc., Eugene, Oreg.). In this method, cells are treated with a compound as described herein for a period of time (e.g., 48 hours). The rescue or correction of halide efflux is then detected using the SPQ assay with the halide dye. […] Optionally, the halide efflux is chloride efflux. The method of screening can further comprise performing the method with multiple concentrations of the compound.
The compounds were initially subjected to the SPQ halide-sensitive fluorescence dye profiling assay for rescue or correction of membrane chloride ion permeability or transport with an 8-point concentration-response curve. The EC50 values for the compounds described herein were determined using SPQ (Table 1). The ΔSPQ value was calculated by determining the difference between the maximum and minimum SPQ values for the compounds.
To perform the SPQ high throughput screening assay, CFBE41o-cells were seeded into 96-well microtiter plates and were loaded with the fluorescent halide-sensitive dye, SPQ, in serum-containing culture medium. Certain wells were loaded with known positive control corrector molecules, including the industry standard Vertex 809 (VX-809; Vertex Pharmaceuticals, Cambridge, Mass.) at 3 μM, which is the maximally effective profiling dose for VX-809. The test compounds were loaded into wells and were tested in triplicate wells at a 10 μM dose and incubated over 48 hours at room temperature. During the 48 hour period, SPQ was absorbed. Plates were washed in a sodium chloride (NaCl) based Ringer and read once over two minutes to set the baseline SPQ fluorescence activity. Then, NaCl was replaced by sodium nitrate (NaNO3) based Ringer. The plates were read twice over four minutes. The primary high throughput screen (HTS) data were analyzed to detect any function of rescued delF508-CFTR under basal conditions. The plate was read up to two times to complete the SPQ HTS assay.

Compound	SPQ EC50	ΔSPQ (difference between maximum and minimum SPQ values) [RFU]
C=CCn1c(=O)c2c(nc3n(-c4ccc(OC)cc4)c(C)c(C)n23)n(C)c1=O [Compound I-26]		4090
C/C=C/Cn1c(=O)c2c(nc3n(C(C)CC)c(C)cn23)n(C)c1=O (stereo not shown) [Compound I-3]		5305
C/C=C/Cn1c(=O)c2c(nc3n2C(C)C(C)=NN3CC)n(C)c1=O (stereo not shown) [Compound V-12]		6365
CCn1c(=O)c2c(nc3n(-c4cccc(C)c4)c(C)c(C)n23)n(C)c1=O [Compound I-6]		6023
CCCn1c(=O)c2c(nc3n2C(C)C(C)=NN3CC(C)C)n(C)c1=O (stereo not shown) [Compound V-3]		7753
Cc1cc(C)cc(-n2c(C)cn3c4c(=O)n(C)c(=O)n(C)c4nc23)c1 [Compound I-13]		6131
Cn1c(=O)c2[nH]c(NCCNc3ccccn3)nc2n(C)c1=O [Compound B-13]	No effect	
CCc1ccc(-n2c(C)c(C)n3c4c(=O)n(CCCO)c(=O)n(C)c4nc23)cc1 [Compound I-33]		16061
CCCCn1c(=O)c2c(nc3n(CCO)c(C)cn23)n(C)c1=O [Compound I-28]		1344
CCCn1c(=O)c2c(nc3n(CC(C)C)c(C)c(C)n23)n(C)c1=O [Compound I-31]		300
Cc1ccc(C)c(Cn2c(=O)c3c(nc4[nH]c(C)c(C)n43)n(C)c2=O)c1 [Compound I-11]		3705
C=CCn1c(C)cn2c3c(=O)n(Cc4ccc(F)cc4)c(=O)n(C)c3nc12 [Compound I-22]		8993

More lines, now with the values ahead:

SPQ EC50	ΔSPQ (difference between maximum and minimum SPQ values) [RFU]	Compound
No effect		Cn1c(=O)c2nc(N3CCN(CCO)CC3)[nH]c2n(C)c1=O [Compound B-14]
No effect		Cn1c(=O)c2nc(N3CCN(Cc4ccc(C(F)(F)F)cc4)CC3)[nH]c2n(C)c1=O [Compound B-7.7]
	14593	CCc1ccc(-n2c(C)cn3c4c(=O)n(CCCO)c(=O)n(C)c4nc23)cc1 [Compound I-42]
	3750	COc1cccc(CN2CCN(c3nc4c(=O)n(C)c(=O)n(C)c4[nH]3)CC2)c1 [Compound B-7.10]
	8875	CCCn1c(=O)c2c(nc3n(-c4ccccc4C)c(C)cn23)n(C)c1=O [Compound I-14]
	9486	CCCn1c(=O)c2c(nc3n(Cc4ccccc4)c(C)c(C)n23)n(C)c1=O [Compound I-34]
	5256	CCn1c(N2CCN(CCCc3ccccc3)CC2)nc2c1c(=O)[nH]c(=O)n2C [III-4]
	4315	CC(C)CCn1c(=O)c2c(nc3n2CCN3Cc2ccco2)n(C)c1=O [Compound I-55]
	5149	CC1=NN(C)c2nc3c(c(=O)n(Cc4cccc(C)c4)c(=O)n3C)n2C1 [Compound V-8]
	4000	CCn1c(=O)c2c(nc3n(-c4ccccc4C)c(C)c(C)n23)n(C)c1=O [Compound I-57]
No effect		COCCCCN1CCN(c2nc3c(=O)n(C)c(=O)n(C)c3[nH]2)CC1 [Compound B-7.20]
	11080	Cc1c(C)n2c3c(=O)n(CCCO)c(=O)n(C)c3nc2n1-c1ccccc1 [Compound I-41]
No effect		Cc1cn2c3c(=O)n(C)c(=O)n(C)c3nc2n1CCN1CCOCC1 [Compound A-10]

same assay, conditions: CFBE41o- cells, 48 h; read-out: SPQ EC50

Compound	pEC50
C=CCn1c(=O)c2c(nc3n(-c4ccc(OC)cc4)c(C)c(C)n23)n(C)c1=O [Compound I-26]	5.51
C/C=C/Cn1c(=O)c2c(nc3n(C(C)CC)c(C)cn23)n(C)c1=O (stereo not shown) [Compound I-3]	< 4.52
C/C=C/Cn1c(=O)c2c(nc3n2C(C)C(C)=NN3CC)n(C)c1=O (stereo not shown) [Compound V-12]	< 4.52
CCn1c(=O)c2c(nc3n(-c4cccc(C)c4)c(C)c(C)n23)n(C)c1=O [Compound I-6]	5.05
CCCn1c(=O)c2c(nc3n2C(C)C(C)=NN3CC(C)C)n(C)c1=O (stereo not shown) [Compound V-3]	5.40
Cc1cc(C)cc(-n2c(C)cn3c4c(=O)n(C)c(=O)n(C)c4nc23)c1 [Compound I-13]	5.05
CCc1ccc(-n2c(C)c(C)n3c4c(=O)n(CCCO)c(=O)n(C)c4nc23)cc1 [Compound I-33]	4.72
CCCCn1c(=O)c2c(nc3n(CCO)c(C)cn23)n(C)c1=O [Compound I-28]	5.52
CCCn1c(=O)c2c(nc3n(CC(C)C)c(C)c(C)n23)n(C)c1=O [Compound I-31]	4.90
Cc1ccc(C)c(Cn2c(=O)c3c(nc4[nH]c(C)c(C)n43)n(C)c2=O)c1 [Compound I-11]	< 4.52
C=CCn1c(C)cn2c3c(=O)n(Cc4ccc(F)cc4)c(=O)n(C)c3nc12 [Compound I-22]	5.20

Now from value to compound:

pEC50	Compound
4.71	CCc1ccc(-n2c(C)cn3c4c(=O)n(CCCO)c(=O)n(C)c4nc23)cc1 [Compound I-42]
5.15	COc1cccc(CN2CCN(c3nc4c(=O)n(C)c(=O)n(C)c4[nH]3)CC2)c1 [Compound B-7.10]
4.72	CCCn1c(=O)c2c(nc3n(-c4ccccc4C)c(C)cn23)n(C)c1=O [Compound I-14]
5.34	CCCn1c(=O)c2c(nc3n(Cc4ccccc4)c(C)c(C)n23)n(C)c1=O [Compound I-34]
< 4.52	CCn1c(N2CCN(CCCc3ccccc3)CC2)nc2c1c(=O)[nH]c(=O)n2C [III-4]
< 4.52	CC(C)CCn1c(=O)c2c(nc3n2CCN3Cc2ccco2)n(C)c1=O [Compound I-55]
4.85	CC1=NN(C)c2nc3c(c(=O)n(Cc4cccc(C)c4)c(=O)n3C)n2C1 [Compound V-8]
5.10	CCn1c(=O)c2c(nc3n(-c4ccccc4C)c(C)c(C)n23)n(C)c1=O [Compound I-57]
4.69	Cc1c(C)n2c3c(=O)n(CCCO)c(=O)n(C)c3nc2n1-c1ccccc1 [Compound I-41]
5.00	Cn1c(=O)c2nc(N3CCN(c4ccccn4)CC3)[nH]c2n(C)c1=O [Compound B-3]

same assay, conditions: versus VX-809

potency and efficacy compared with VX-809 in SPQ assay	Compound
superior potency and efficacy to VX-809	COc1cccc(CN2CCN(c3nc4c(=O)n(C)c(=O)n(C)c4[nH]3)CC2)c1 [Compound B-7.10]
superior potency and efficacy to VX-809	CCCn1c(=O)c2c(nc3n(Cc4ccccc4)c(C)c(C)n23)n(C)c1=O [Compound I-34]
superior potency and efficacy to VX-809	CCCn1c(=O)c2c(nc3n2C(C)C(C)=NN3CC(C)C)n(C)c1=O (stereo not shown) [Compound V-3]
